What was measured:
[1] = reference (77); cited from earlier work
Atopobium vaginae = details: reference (80); cited from earlier work
strain ARG3 = experiment: MIC by E-test, strain ARG3; format: cell-based, Gardnerella vaginalis; details: Mueller-Hinton agar with 5% sheep's blood, CLSI, repeated twice
[2] = tested on: BV and G. vaginalis infections; details: cited from earlier work
strain 49145 = experiment: MIC by E-test, strain 49145; format: cell-based, Gardnerella vaginalis; details: Mueller-Hinton agar with 5% sheep's blood, CLSI, repeated twice
G. Vaginalis ARG37 = experiment: Murine model of vaginal colonization; format: in vivo; details: co-inoculation with DNase, mice, strain ARG37; FIG. 16
From the text: The same strategy works in the complex environment of the lower genital tract in murine models of vaginal colonization. Models for vaginal colonization of mice with G. Vaginalis and group B Streptococcus have been developed. […] FIG. 16. These models will important in prophylactic use in at-risk populations including, but not limited to, pregnant women, those individuals infected with sexually transmitted diseases including HIV, and those individuals with recurrent BV.

[3] = tested on: group B Streptococcus biofilm; experiment: Inhibition of group B Streptococcus biofilm formation (A462); format: cell-based; details: DNase 100 μg/ml, t=0 hours; FIG. 17
Protocol: (§1) Biofilms of multiple Gardnerella strains [G. Vaginalis is the only species in the genus Gardnerella.] were grown, separately, in vitro in 96-well plates in BHI-supplemented media. Bovine pancreas DNase was added in varying concentrations to biofilm cultures at 0 hours (newly forming biofilms) and 24 hours (established biofilms.) The biofilms were washed, the supernatant was removed, and the biofilms were stained with safranin and solubilized in acetic acid. Biofilm absorbance at A462 nm was measured with a spectrophotometer, which method quantifies the amount of safranin stain taken up by the biofilm. DNase-treated and untreated biofilms were also grown in chamber slides and DAPI staining was performed for fluorescence microscopy.
(§2) 180 μL of bacteria and 20 μL of DNase at varying concentrations (1:10 dilutions of 1 mg/mL to final concentrations in the wells as labeled in the figures) or PBS as a control (total volume always 200 μL) were added together at t=0 hours and incubated for 24 hours. They were then washed, stained with safranin and solubilized with ascetic acid, with measurement of absorbance at 462 nm to quantify density of stained material.
The results depicted in FIG. 17 show the dose-response inhibition of group B Streptococcus biofilm formation by DNase that was administered at t=0 hours as assessed by measuring the absorbance of light at 462 nm (A462).

[4] = tested on: Gardnerella strain 49145 biofilm; experiment: Inhibition of newly forming biofilm (safranin stain, A462), strain 49145; format: cell-based, Gardnerella vaginalis; details: for reduction in biofilm formation (% biofilm density): FIG. 6
Protocol: as §1
(§3) Biofilms were grown in the presence of varying concentrations of antibiotic and DNase administered at t=0 hours to test the effect of the agents on biofilm formation. To test the effects on the degradation of established biofilms, the agents were administered at t=24 hours.
All cultures and biofilms were grown in ‘biofilm media’ (BHI media+0.3% starch, 0.3% glucose, 0.5 mcg/mL amphotericin B) at 37° C. and 5% CO2. Liquid cultures of strains 49145 or ARG3 were grown overnight to a standardized OD600 of 0.6 and diluted 1:10 prior to aliquoting for biofilms. Cultures were aliquoted into 96-well plates as follows:
as §2
160 μL of culture, 20 µL of antibiotic at varying concentrations (1:10 and 2-fold dilutions to final concentrations in wells as labeled in the figures), and 20 μL of DNase at varying concentrations (1:10 dilutions as above) with 20-40 μL of PBS used when necessary for controls (wells without antibiotic, DNase, or both) were added to wells at t=0 hours and incubated for 24 hours as above. Biofilms were quantified as above.

[5] = tested on: biofilms made by G. vaginalis; details: Patterson et al. 2007; cited from earlier work
[6] = tested on: Gardnerella strain ARG3 biofilm; experiment: Inhibition of newly forming biofilm (safranin stain), strain ARG3; format: cell-based, Gardnerella vaginalis; details: DNase 10 μg/ml and 100 μg/ml, time=0 hours; FIG. 2
Protocol: as §1
Biofilms were grown in the presence of varying concentrations of antibiotic and DNase administered at t=0 hours to test the effect of the agents on biofilm formation. […]
180 μL of bacteria and 20 μL of DNase at varying concentrations (1:10 dilutions of 1 mg/mL to final concentrations in the wells as labeled in the figures) or PBS as a control (total volume always 200 μL) were added together at t=0 hours and incubated for 24 hours. They were then washed, stained with safranin and solubilized with ascetic acid, with measurement of absorbance at 462 nm to quantify density of stained material. […]

[7] = tested on: established Gardnerella strain ARG3 biofilms; experiment: Breakdown of established (24 h) biofilm, strain ARG3; format: cell-based, Gardnerella vaginalis; details: DNase administered at t=24 hours; FIG. 4
Protocol: as §1, §3
(§4) All cultures and biofilms were grown in ‘biofilm media’ (BHI media+0.3% starch, 0.3% glucose, 0.5 mcg/mL amphotericin B) at 37° C. and 5% CO2. Liquid cultures of strains 49145 or ARG3 were grown overnight to a standardized OD600 of 0.6 and diluted 1:10 prior to aliquoting for biofilms. […]
(§5) For quantification as above, antibiotic concentrations were chosen based on the MIC (⅛-4× MIC).

Gardnerella biofilms = experiment: Fluorescence microscopy of DNase-treated biofilms; format: cell-based, Gardnerella vaginalis; details: DNase-treated vs untreated biofilms
[8] = tested on: established Gardnerella strain 49145 biofilms; experiment: Breakdown of established (24 h) biofilm, strain 49145; format: cell-based, Gardnerella vaginalis; details: DNase administered at t=24 hours; FIG. 3
Protocol: as §1, §3, §4, §5

[9] = tested on: ATCC Gardnerella strain 49145 biofilms; experiment: Liberation of bacteria from biofilm into supernatant / bacterial killing (colony counts); format: cell-based, Gardnerella vaginalis
Protocol: Further experiments were conducted to assess whether there is an improved effect on biofilm formation and breakdown by the combined administration of DNase and antibiotics against Gardnerella. The y axis plots the % of biofilm absorbance A462 for each condition. […] The minimum inhibitory concentration (MIC) for the antibiotics was measured by E-testing the relevant strains. Colony counts were performed on both the supernatant and the biofilm components of the culture, and a one-way ANOVA with Bonferroni post-tests were performed using Prism (Graphpad) where DNase was administered at time=24 hours.

CCS(=O)(=O)CCn1c([N+](=O)[O-])cnc1C [Tinidazole]
half-life [1]: 12 to 14 h

CC1(C)S[C@@H]2[C@H](NC(=O)[C@H](N)c3ccccc3)C(=O)N2[C@H]1C(=O)O [ampicillin]
Etest susceptibility concentration (range) (Atopobium vaginae): <0.016 to 0.94 µg/mL

CC[C@H]1OC(=O)[C@H](C)[C@@H](O[C@H]2C[C@@](C)(OC)[C@@H](O)[C@H](C)O2)[C@H](C)[C@@H](O[C@@H]2O[C@H](C)C[C@H](N(C)C)[C@H]2O)[C@](C)(O)C[C@@H](C)CN(C)[C@H](C)[C@@H](O)[C@]1(C)O [azithromycin]
Etest susceptibility concentration (range) (Atopobium vaginae): <0.016 to 0.32 µg/mL

O=C(O)c1cn(C2CC2)c2cc(N3CCNCC3)c(F)cc2c1=O [ciprofloxacin]
Etest susceptibility concentration (range) (Atopobium vaginae): 0.023 to 0.25 µg/mL

CC(=O)NC[C@H]1CN(c2ccc(N3CCOCC3)c(F)c2)C(=O)O1 [linezolid]
Etest susceptibility concentration (range) (Atopobium vaginae): 0.016 to 0.125 µg/mL

Cc1ncc([N+](=O)[O-])n1CCO [metronidazole]
Minimum Inhibitory Concentration (MIC) (strain ARG3): 4
half-life [1]: 6 to 7 h
cure rates (by Amsel criteria) ([2]; at four weeks, oral regimens for one week): approximately 80%
early rates of clinical cure ([2]; multiple divided-dose oral regimens for one week): > 90%
Minimum Inhibitory Concentration (MIC) (strain 49145): 4

DNase
establishment of vaginal colonization (G. Vaginalis ARG37): inhibited the establishment of colonization
extent of biofilm formation (A462) [3]: dramatic reduction
extent of biofilm formation (A462) ([4]; DNase 10 μg/ml and 100 μg/ml, administered at time=0 hours, FIG. 1): dramatic reduction
reduction in biofilm formation (% biofilm density) ([4]; DNase alone 1 μg/mL, t=0 hours): 30%
reduction in biofilm formation (A462) ([4]; DNase alone 1 μg/mL, t=0 hours, FIG. 8 (C)): 30%
reduction in biofilm formation (% biofilm density) ([4]; DNase alone 100 μg/mL, t=0 hours): 75%
reduction in biofilm formation or breakdown [5]: no reduction in biofilm formation or breakdown
extent of biofilm formation (% biofilm density) [6]: dramatic reduction
breakdown of established biofilms [7]: dose-dependent breakdown
biofilm matrix and overall density by fluorescence microscopy (Gardnerella biofilms): decrease in the biofilm matrix and in overall density
breakdown of established biofilms [8]: dose-dependent breakdown
bacterial killing in biofilm cultures ([9]; DNase alone): does not kill the bacteria
release of biofilm-embedded bacteria ([9]; DNase, FIGS. 13-15): released into the supernatant

penicillin
Etest susceptibility concentration (range) (Atopobium vaginae): 0.008 to 0.25 µg/mL
